In PMC5881522, “Molecular Defects in Cardiac Myofilament Ca^2+-Regulation Due to Cardiomyopathy-Linked Mutations Can Be Reversed by Small Molecules Binding to Troponin” (Frontiers in Physiology, 2018):
Entries after “also recorded” stand apart in the source; their conditions may differ.

Legend:
[1] = target: T1, tropomyosin E180G mutant-containing thin filaments (Homo sapiens, UniProt P19429+P45379+P63316); experiment: Single [Ca2+] in vitro motility assay screen for re-coupling; format: biochemical; details: for Coupling Difference (Initial Screen E180G): 100 μM compound, difference between motility (%) in phosphorylated and unphosphorylated thin filaments, TPM1 E180G, >10% = re-coupling; for Coupling Difference (Initial Screen E180G) / re-coupling activity (in words): 0.037 μM Ca2+; for re-coupling activity (in words): E180G thin filaments
T1 construct: isolate troponin from 100 mg of donor heart tissue; from tissue; host or cells: troponin: human donor heart; tropomyosin: baculovirus/Sf9 (gift); actin: rabbit fast-twitch skeletal muscle
Protocol: (§1) Thin filaments were reconstituted with 10 nM rabbit skeletal or mouse cardiac muscle α-actin (labeled with TRITC phalloidin), tropomyosin (40–60 nM), and troponin (60 nM) to study Ca^2+-regulation of filament motility by the quantitative in vitro motility assay (IVMA) (Fraser and Marston, [1995]; Messer et al., [2007]). Thin filament movement over a bed of immobilized rabbit fast skeletal muscle heavy meromyosin (100 μg/ml) was compared in paired motility cells, in which troponin varied by a single factor (mutation, phosphorylation state, or treatment with drug). The temperature was set to 29°C. Filament movement was recorded and analyzed as previously described (Marston et al., [1996]), yielding two parameters, the fraction of filaments moving and the speed of moving filaments. Only the fraction of filaments motile is used in this study.
For drug screening, motility was measured with paired phosphorylated and unphosphorylated tropomyosin E180G mutant-containing thin filaments at a fixed 0.037 μM Ca^2+. Most assays were single measurements.
For the rapid screening of compounds, we devised a single Ca^2+ concentration assay. This is illustrated in Figures 2A,B for quercetin. The test system contains skeletal muscle actin, human sequence recombinant tropomyosin 1.1 containing the E180G HCM-associated mutation and human cardiac troponin from donor hearts in the phosphorylated and unphosphorylated form. At 0.037 μM Ca^2+ the filaments are about 40% motile irrespective of phosphorylation level whilst when quercetin is added the phosphorylated Ca^2+ activity curve shifts to the right and % motility at 0.037 μM Ca^2+ drops, whilst the unphosphorylated level is unchanged. We have set a difference between phosphorylated and unphosphorylated >10% as indicating re-coupling activity. This assay method can also be used to construct a dose-response curve as shown. We investigated compounds in 4 categories.
Figure 2 Single [Ca^2+] screen for re-coupling compounds. […] Solid lines, phosphorylated state; dotted lines, unphosphorylated state. Purple lines and points, E180G thin filaments; green lines and points, E180G thin filaments + Quercetin (B) Dose -response curve for quercetin recoupling activity measured at a constant concentration of 0.037 μM Ca^2+. INSET, kinetic analysis of dose response curve; difference between phosphorylated and unphosphorylated states is plotted against quercetin concentration. The Hill equation is fitted to the data, EC50 = 8 μM. (C,D) The effect of 100 μM drug treatment on the difference between % of motility of phosphorylated and unphosphorylated tropomyosin E180G mutant-containing thin filaments at 0.037 μM Ca^2+. (C) EGCG-related molecules (for structures 1–28 see Figure S1 and Table 1). (D) Silybin, related compounds and other HsP90 inhibitors and Ca^2+ desensitizers. The threshold for positive re-coupling was set at a 10% difference (dotted line).

[2] = target: T2, thin filaments containing E180G tropomyosin (TPM1 E180G, HCM) (Homo sapiens, UniProt P19429+P45379+P63316); experiment: IVMA Ca2+-activation curves, TPM1 E180G; format: biochemical; details: phosphorylated and unphosphorylated E180G tropomyosin thin filaments, 25 μM for Quercetin and ECG
T2 construct: isolate troponin from 100 mg of donor heart tissue; from tissue; host or cells: troponin: human donor heart; tropomyosin: baculovirus/Sf9 (gift); actin: rabbit fast-twitch skeletal muscle
Source text: (§2) Recombinant human sequence tropomyosin was a gift from Kristen Nowak and Elyshia MacNamara, University, Western Australia. Wild-type α-tropomyosin (Tpm1.1) and mutant E180G tropomyosin were expressed in a baculovirus/Sf9 system (Akkari et al., [2002]; Marston et al., [2013]). Skeletal muscle F-actin and myosin were isolated from rabbit fast-twitch skeletal muscle as previously described (Messer et al., [2007]). TnC G159D mutant troponin was extracted from a mutant human heart sample (Dyer et al., [2009]), E99K mutant cardiac actin was extracted from the E99K transgenic mouse heart (Song et al., [2013]).
as §1
The fraction motile was measured over a range of Ca^2+ concentrations to generate Ca^2+-activation curves. The data were fitted to the 4-variable Hill equation to yield a value for EC50 and nH. Most assays of the effect of compounds are single measurements. […]

[3] = tested on: Hsp90; set-up: method as in Khandelwal et al., 2013; details: ref Khandelwal et al., 2013; read-out: EC50 Hsp90 inhibition assay; cited from earlier work
[4] = tested on: isolated cardiomyocytes from ACTC E99K HCM transgenic mice; experiment: Lusitropic effect of dobutamine in isolated cardiomyocytes; format: cell-based; details: blunted in ACTC E99K mouse cardiomyocytes; preliminary experiments
Source text: The main effect of uncoupling of the modulation of Ca^2+ sensitivity by TnI phosphorylation is the loss of the lusitropic response to beta adrenergic stimulation, which is usually accompanied by blunting of the whole physiological adrenergic response.

[5] = target: T3, thin filaments containing TnC G159D (TNNC1 G159D, DCM) (Homo sapiens, UniProt P19429+P45379+P63316, G159D); experiment: IVMA Ca2+-activation curves, TNNC1 G159D; format: biochemical; details: phosphorylated and unphosphorylated TnC G159D thin filaments
T3 construct: TnC G159D mutant troponin was extracted from a mutant human heart sample; from tissue; host or cells: mutant human heart sample (troponin); rabbit skeletal muscle (actin)
Source text: as §2
Thin filaments were reconstituted with 10 nM rabbit skeletal or mouse cardiac muscle α-actin (labeled with TRITC phalloidin), tropomyosin (40–60 nM), and troponin (60 nM) to study Ca^2+-regulation of filament motility by the quantitative in vitro motility assay (IVMA) (Fraser and Marston, [1995]; Messer et al., [2007]). […] Filament movement was recorded and analyzed as previously described (Marston et al., [1996]), yielding two parameters, the fraction of filaments moving and the speed of moving filaments. […]
The fraction motile was measured over a range of Ca^2+ concentrations to generate Ca^2+-activation curves. […]

[6] = dose-response of % motility difference at 0.037 μM Ca2+, Hill fit

| Structure (SMILES) | Coupling Difference (Initial Screen E180G) [1] | re-coupling activity (in words) [1] | further results |
| --- | --- | --- | --- |
| COc1cc([C@@H]2Oc3c(O)cc([C@H]4Oc5cc(O)cc(O)c5C(=O)[C@@H]4O)cc3[C@H]2CO)ccc1O [Silychristin] | 35% | – | – |
| CO[C@@H]1[C@@H](OC(N)=O)[C@@H](O)[C@H](Oc2ccc3c(O)c(NC(=O)c4ccc(O)c(CC=C(C)C)c4)c(=O)oc3c2C)OC1(C)C [Novobiocin] | 46% | – | – |
| O=c1c(O)c(-c2ccc(O)c(O)c2)oc2cc(O)cc(O)c12 [Quercetin] | 51% | – | EC50 [1, 6]: 8 µM; effect on Ca2+-activation curves (desensitizer / re-coupler), in words [2]: typical pure recoupler; also recorded: pure recoupling |
| COc1cc([C@@H]2Oc3cc(-c4oc5cc(O)cc(O)c5c(=O)c4O)ccc3O[C@H]2CO)ccc1O [Dehydrosilybin B, 2,3-dehydrosilybin B] | 62% | restores coupling | EC50 [1, 6]: 47 µM; effect on Ca2+-activation curves (desensitizer / re-coupler), in words [2]: pure recoupling; effect on Ca2+-activation curves (desensitizer / re-coupler), in words ([2]; listed as dehydrosilybin B): recouples |
| COc1cc(OC)cc(C(=O)OC2COc3cc(OC)cc(OC)c3C2)c1 (stereo not drawn) [compound 19] | 24.0% | re-coupler | EC50 [3]: 21 µM |
| COc1ccc(C(=O)OC2COc3cccc(O)c3C2)cc1 (stereo not drawn) [compound 9] | 20.0% | – | EC50 [3]: > 100 µM; EC50 [1, 6]: 35 µM |
| COc1cc(C2Oc3cc([C@H]4Oc5cc(O)cc(O)c5C(=O)[C@@H]4O)ccc3OC2CO)ccc1O (stereo partly drawn) [Silybin] | 12.0% | – | EC50 [1, 6]: 47 µM |
| O=C(O[C@@H]1Cc2c(O)cc(O)cc2O[C@@H]1c1ccc(O)c(O)c1)c1cc(O)c(O)c(O)c1 [Epicatechin Gallate] | 8% | – | effect on Ca2+-activation curves (desensitizer / re-coupler), in words ([2]; listed as ECG): pure desensitizer; also recorded: desensitizer but not a recoupler |
| COc1ccc(C(=O)OC2COc3cc(OC)cc(OC)c3C2)cc1 (stereo not drawn) [compound 7] | −11.0% | reverse effect | EC50 [3]: 32 µM; EC50 [1, 6]: 67 µM |
| CCOc1cccc(C(=O)OC2COc3cc(OC)cc(OC)c3C2)c1 (stereo not drawn) [compound 16] | 6.0% | inactive | EC50 [3]: 8 µM; EC50 [1, 6]: 31 µM |
| COc1cc(C2Oc3ccc([C@H]4Oc5cc(O)cc(O)c5C(=O)[C@@H]4O)cc3OC2CO)ccc1O (stereo partly drawn) [Isosilybin] | 4% | – | – |
| O=C1c2c(O)cc(O)cc2OC(c2ccc(O)c(O)c2)C1O (stereo not drawn) [Taxifolin] | 60% | – | – |
| COc1cccc(C(=O)OC2COc3cccc(O)c3C2)c1 (stereo not drawn) [compound 4] | 27.0% | – | EC50 [3]: > 100 µM; EC50 [1, 6]: 34 µM |
| COc1cccc(-c2cc(C(=O)OC3COc4cc(O)cc(O)c4C3)ccc2OC)c1 (stereo not drawn) [compound 2] | 27.0% | effective re-couplers | EC50 [3]: 22 µM; EC50 [1, 6]: 30 µM |
| COC(=O)N1CCN(Cc2cccc(NC(=O)Nc3ccc(C)nc3)c2F)CC1 [Omecamtiv Mecarbil] | 0% | do not re-couple | – |
| Oc1cc(O)c2c(c1)O[C@H](c1cc(O)c(O)c(O)c1)[C@H](O)C2 [Epigallocatechin] | 62% | – | – |
| Oc1ccc(/C=C/c2cc(O)cc(O)c2)cc1 [Resveratrol] | 63% | effective re-couplers | lusitropic effect of dobutamine, in words [4]: restored |
| COc1cc([C@@H]2[C@H]3CO[C@@]4(O)C(=O)[C@@H]2C=C([C@H]2Oc5cc(O)cc(O)c5C(=O)[C@@H]2O)[C@@H]34)ccc1O [Silydianin] | 20% | – | – |
| COc1cc(OC)c2c(c1)OCC(OC(=O)c1ccc(OC(C)=O)c(CC=C(C)C)c1)C2 (stereo not drawn) [compound 8] | No Effect | inactive | EC50 [3]: 38 µM |
| COc1cc([C@H]2Oc3cc([C@H]4Oc5cc(O)cc(O)c5C(=O)[C@@H]4O)ccc3O[C@@H]2CO)ccc1O [Silybin A] | 5% | complex dose sensitive | effect on Ca2+-activation curves (desensitizer / re-coupler), in words [5]: pure desensitizer |
| Oc1cc(O)c2c(c1)O[C@H](c1ccc(O)c(O)c1)[C@H](O)C2 [Epicatechin] | 69% | – | – |
| O=C(O[C@H]1COc2cc(O)cc(O)c2C1)c1cccc(O)c1 [compound 12] | −1.0% | – | EC50 [3]: 63 µM; nH (Table 6-1, E180G + Drug) ([1]; Hill coefficient of dose-response of % motility difference, 0.037 µM Ca2+): No%Eﬀect; EC50 (Table 6-1, E180G + Drug) ([1]; difference between phosphorylated and dephosphorylated TPM1 E180G thin filaments, 0.037 µM Ca2+, Hill fit): No%Eﬀect; E180G EC50 % Motility Difference [1, 6]: No Effect; Magnitute (% difference) ([1]; fitted magnitude of dose-response of % motility difference, 0.037 µM Ca2+): No%Eﬀect |
| NCCCCCCNS(=O)(=O)c1cccc2c(Cl)cccc12 [W-7] | 50% | effective re-couplers | – |
| Oc1cc(O)c2c(c1)O[C@H](c1cc(O)c(O)c(O)c1)[C@@H](O)C2 [Gallocatechin] | 68% | – | – |
| COc1ccc(-c2coc3cc(O[C@@H]4O[C@H](CO)[C@@H](O)[C@H](O)[C@H]4O)cc(O)c3c2=O)cc1 [Sissotrin] | 30% | – | – |
| COc1cc(/C=C/c2ccc(O)cc2)cc(OC)c1 [Pterostilbene] | 50% | effective re-couplers | – |
| COc1cc([C@H]2Oc3cc(-c4oc5cc(O)cc(O)c5c(=O)c4O)ccc3O[C@@H]2CO)ccc1O [Dehydrosilybin A, 2,3-dehydrosilybin A] | 3% | poor recoupling molecule | effect on Ca2+-activation curves (desensitizer / re-coupler), in words [2]: ineﬀective |
